According to ChEMBL document CHEMBL5236573, “Development of benzodioxine-heteroarylpiperazines as highly potent and selective α2c antagonists” (Bioorg Med Chem Lett, 2022):
≈ marks a conversion by molar mass, not a printed value.

Legend:
Homo sapiens = species on record: Homo sapiens; assay: Selectivity index, ratio of Kb for antagonist activity at alpha2a-adrenoceptor (unknown origin) to Kb for antagonist activity at alpha2c-adrenoceptor (unknown origin)
[1] = biological target: T1, Alpha-2A adrenergic receptor (Homo sapiens) (UniProt P08913); assay: Antagonist activity at alpha2a-adrenoceptor (unknown origin) assessed as reduction in adrenaline-induced response by measuring equilibrium binding constant; conditions: filed as antagonist
T1 sequence (whole entry): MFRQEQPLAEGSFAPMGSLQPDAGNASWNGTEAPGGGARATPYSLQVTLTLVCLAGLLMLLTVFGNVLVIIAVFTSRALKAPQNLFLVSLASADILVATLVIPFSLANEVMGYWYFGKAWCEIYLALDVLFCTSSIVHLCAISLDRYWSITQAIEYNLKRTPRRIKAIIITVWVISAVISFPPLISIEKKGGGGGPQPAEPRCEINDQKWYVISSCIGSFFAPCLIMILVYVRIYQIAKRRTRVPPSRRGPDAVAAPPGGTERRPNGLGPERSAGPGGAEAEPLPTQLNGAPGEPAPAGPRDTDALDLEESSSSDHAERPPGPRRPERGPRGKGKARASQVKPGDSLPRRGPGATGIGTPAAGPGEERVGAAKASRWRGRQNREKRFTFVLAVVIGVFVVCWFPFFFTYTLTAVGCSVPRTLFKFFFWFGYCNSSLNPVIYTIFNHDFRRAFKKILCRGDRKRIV

[2] = biological target: T2, Alpha-2C adrenergic receptor (Homo sapiens) (UniProt P18825); assay: Antagonist activity at alpha2c-adrenoceptor (unknown origin) assessed as reduction in adrenaline-induced response by measuring equilibrium binding constant; conditions: filed as antagonist
T2 sequence (whole entry): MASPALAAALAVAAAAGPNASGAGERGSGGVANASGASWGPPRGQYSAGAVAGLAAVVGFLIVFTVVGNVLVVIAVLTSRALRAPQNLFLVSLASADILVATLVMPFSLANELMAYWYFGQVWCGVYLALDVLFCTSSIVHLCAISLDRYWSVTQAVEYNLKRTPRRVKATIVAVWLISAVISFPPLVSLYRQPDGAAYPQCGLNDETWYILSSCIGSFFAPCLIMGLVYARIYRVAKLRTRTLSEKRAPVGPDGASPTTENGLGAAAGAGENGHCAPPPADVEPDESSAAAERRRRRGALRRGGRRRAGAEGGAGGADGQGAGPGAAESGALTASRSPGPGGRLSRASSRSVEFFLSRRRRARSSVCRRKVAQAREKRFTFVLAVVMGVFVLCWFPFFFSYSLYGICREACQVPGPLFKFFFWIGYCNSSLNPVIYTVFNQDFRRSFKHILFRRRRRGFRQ

[3] = Metabolic stability in rat hepatocytes assessed as clearance per 10^6 cells at 1 uM; assay type: ADME, cell-based, Hepatocyte; conditions: read-out: CLH
[4] = Solubility of the compound in pH 7.4 buffer; assay type: physicochemical
[5] = Lipophilicity, logD of the compound; assay type: physicochemical; conditions: octanol/water
[6] = Metabolic stability in human hepatocytes assessed as clearance per 10^6 cells at 1 uM; assay type: ADME, cell-based, Hepatocyte; conditions: read-out: CLH
[7] = Permeability across basolateral to apical side in human Caco-2 cells; assay type: ADME, cell-based; conditions: read-out: permeability
[8] = Unbound fraction in rat plasma at 1 mg/kg, po; assay type: ADME, organism-based
[9] = Unbound Cmax in rat brain at 1 mg/kg, po by rapid equilibrium dialysis method; assay type: ADME, organism-based; conditions: in vivo
[10] = Tmax in rat plasma at 1 mg/kg, po; assay type: ADME, organism-based
[11] = AUC (0 to 6 hrs) in rat plasma at 1 mg/kg, po; assay type: ADME, organism-based; design: dose 1 mg/kg, route po
[12] = Cmax in rat plasma at 1 mg/kg, po; assay type: ADME, organism-based; design: dose 1 mg/kg, route po
[13] = Unbound fraction in rat brain at 1 mg/kg, po; assay type: ADME, organism-based
[14] = Unbound brain-to-plasma concentration ratio in rat at 1 mg/kg, po; assay type: ADME, organism-based; conditions: brain and plasma, read-out: K(p,uu,brain)
[15] = Tmax in rat brain at 1 mg/kg, po; assay type: ADME, organism-based
[16] = Unbound Cmax in rat plasma at 1 mg/kg, po by rapid equilibrium dialysis method; assay type: ADME, organism-based; conditions: in vivo
[17] = AUC (0 to 6 hrs) in rat brain at 1 mg/kg, po; assay type: ADME, organism-based; design: dose 1 mg/kg, route po
[18] = Permeability across apical to basolateral side in human Caco-2 cells; assay type: ADME, cell-based; conditions: read-out: permeability
[19] = Efflux ratio of permeability across basolateral to apical side over apical to basolateral side in human Caco-2 cells; assay type: ADME, cell-based
[20] = Cmax in rat brain at 1 mg/kg, po; assay type: ADME, organism-based; design: dose 1 mg/kg, route po

| Ratio (Homo sapiens) | Kb [1] | Kb [2] | hepatocyte CLint at 1 µM [3] | solubility [4] | logD [5] | hepatocyte CLint at 1 µM [6] | Structure (SMILES) | further results |
| --- | --- | --- | --- | --- | --- | --- | --- | --- |
| 4490 | 44.9 nM | 0.01 nM |  |  |  |  | O=C1CCCN1c1cccnc1N1CCN(C[C@H]2COc3ccccc3O2)CC1 |  |
| 44900 | 449 nM | 0.01 nM | 128 µL/min/1e6 cells | 133 µM (≈ 57.1 µg/mL) | 3.1 | 18.1 µL/min/1e6 cells | CC1(C)CCN(c2nsnc2N2CCN(C[C@H]3COc4ccccc4O3)CC2)C1=O |  |
| 4990 | 449 nM | 0.09 nM | 30 µL/min/1e6 cells | 719 µM (≈ 280 µg/mL) | 2.5 | 1.75 µL/min/1e6 cells | CN(C)C(=O)c1nsnc1N1CCN(C[C@H]2COc3ccccc3O2)CC1 |  |
| 5380 | 282 nM | 0.05 nM | 16.2 µL/min/1e6 cells | 822 µM (≈ 330 µg/mL) | 2.2 | 8.2 µL/min/1e6 cells | O=C1CCCN1c1nsnc1N1CCN(C[C@H]2COc3ccccc3O2)CC1 | Papp B→A [7]: 44.3 ×10⁻⁶ cm/s; fraction unbound [8]: 0.185; fCmax [9]: 26 nM; Tmax [10]: 15 min; AUC(0-t) [11]: 189 ng·h/mL; Cmax [12]: 113 ng/mL; fraction unbound [13]: 0.104; Kp uu [14]: 0.45; Tmax [15]: 15 min; fCmax [16]: 52 nM; AUC(0-t) [17]: 140 ng·h/mL; Papp A→B [18]: 73.6 ×10⁻⁶ cm/s; efflux ratio [19]: 0.6; Cmax [20]: 101 ng/g |
| 4.15 | 449 nM | 108 nM |  |  |  |  | CN1CCN(c2nsnc2N2CCN(C[C@H]3COc4ccccc4O3)CC2)C1=O |  |
| 5930 | 449 nM | 0.076 nM | 1.8 µL/min/1e6 cells |  |  | 1.8 µL/min/1e6 cells | O=C1NCCN1c1nsnc1N1CCN(C[C@H]2COc3ccccc3O2)CC1 |  |
| 11200 | 449 nM | 0.04 nM | 73.7 µL/min/1e6 cells | 395 µM (≈ 164 µg/mL) | 2.8 | 6.3 µL/min/1e6 cells | CC1CCN(c2nsnc2N2CCN(C[C@H]3COc4ccccc4O3)CC2)C1=O (stereo not given in full) |  |
| 7940 | 317 nM | 0.04 nM | 5 µL/min/1e6 cells | 1130 µM (≈ 451 µg/mL) | 1.9 | 3.6 µL/min/1e6 cells | O=C1CCCN1c1ncsc1N1CCN(C[C@H]2COc3ccccc3O2)CC1 | Papp B→A [7]: 24.3 ×10⁻⁶ cm/s; Papp A→B [18]: 42.4 ×10⁻⁶ cm/s; efflux ratio [19]: 0.6 |

Second part, the compound before the results:

| Structure (SMILES) | Ratio (Homo sapiens) | Kb [1] | Kb [2] | hepatocyte CLint at 1 µM [3] | solubility [4] | logD [5] | hepatocyte CLint at 1 µM [6] | further results |
| --- | --- | --- | --- | --- | --- | --- | --- | --- |
| Cc1c(N2CCNC2=O)c(N2CCN(C[C@H]3COc4ccccc4O3)CC2)nn1C | 7480 | 449 nM | 0.06 nM | 1.8 µL/min/1e6 cells | 114 µM (≈ 47 µg/mL) |  | 1.8 µL/min/1e6 cells | Papp B→A [7]: 21.4 ×10⁻⁶ cm/s; Papp A→B [18]: 2.9 ×10⁻⁶ cm/s; efflux ratio [19]: 7.5 |
| COc1scnc1N1CCN(C[C@H]2COc3ccccc3O2)CC1 | 8830 | 88.3 nM | 0.01 nM | 54.4 µL/min/1e6 cells | 445 µM (≈ 155 µg/mL) | 2.3 | 14.3 µL/min/1e6 cells |  |
| c1ccc2c(c1)OC[C@H](CN1CCN(c3nsnc3Nc3ccncn3)CC1)O2 | 45900 | 459 nM | 0.01 nM | 29.3 µL/min/1e6 cells |  |  | 14.2 µL/min/1e6 cells |  |
| COCc1cccnc1N1CCN(C[C@H]2COc3ccccc3O2)CC1 [ORM-13070] | 4330 | 130 nM | 0.03 nM |  | 176 µM (≈ 62.6 µg/mL) | 3.3 |  |  |
| Oc1cccc([C@H]2CCCN(C[C@H]3COc4ccccc4O3)C2)c1 |  |  |  |  |  |  |  | fraction unbound [8]: < 0.01; fCmax [9]: < 0.09 nM; AUC(0-t) [11]: 9 ng·h/mL; fraction unbound [13]: < 0.01; fCmax [16]: < 0.06 nM; AUC(0-t) [17]: 14 ng·h/mL |
